Test results as given in ChEMBL document CHEMBL3301361, “Experimental in vitro DMPK and physicochemical data on a set of publicly disclosed compounds”.
≈ marks a conversion by molar mass, not a printed value.

Experiments:
physchem [1] = details: octan-1-ol/water
physchem [2] = details: pH 7.4 buffer

Row | SMILES | logD (physchem [1]; pH 7.4, LogD7.4) | solubility thermodynamic (physchem [2]) | logD (physchem [1]; pH 7.4)
1 | CCCSc1nc(N2CCC(C(=O)O)CC2)ccc1C(=O)NC1CCCCC1 | 1.6 | 309 µM (≈ 125 µg/mL) | –
2 | Cc1cccc(-c2nn3c(c2-c2ccnc4ccc(C(N)=O)cc24)CCC3)n1 [GALUNISERTIB] | 1.71 | 182 µM (≈ 67.2 µg/mL) | –
3 | COc1cc2ncnc(Nc3cc(NC(=O)c4ccnc(N5CCOCC5)c4)ccc3C)c2cc1OCCN1CCCCC1 | 3.35 | 813 µM (≈ 486 µg/mL) | –
4 | CNC(=O)c1cc(-c2nc(N3CCOCC3)cc(C3(S(C)(=O)=O)CC3)n2)c2cc[nH]c2c1 | 1.7 | 46.8 µM (≈ 21.3 µg/mL) | –
5 | CSCc1cc(N2CCOCC2)nc(-c2ccccc2)n1 | 3.26 | 55 µM (≈ 16.6 µg/mL) | –
6 | Oc1nc(-c2ccccc2)c(-c2ccccc2)o1 | 3.42 | 107 µM (≈ 25.4 µg/mL) | –
7 | CS(=O)(=O)c1ccc([C@@H](CC2CCCC2)C(=O)Nc2cnc([C@H](O)CO)cn2)cc1Cl | 2.58 | 468 µM (≈ 219 µg/mL) | –
8 | CC1(COc2cc(-c3cccc4c(=O)cc(N5CCOCC5)oc34)ccc2NC(=O)CN2CCOCC2)COC1 | 2.2 | 36.3 µM (≈ 20 µg/mL) | –
9 | Nc1nccc(/C=C/c2ccc(Cl)cc2)n1 | – | 8.7 µM (≈ 2.02 µg/mL) | 3.5
10 | Cc1sc(N2CCN(C)CC2)nc1CCOc1ccc(C[C@H](Nc2ccccc2C(=O)c2ccccc2)C(=O)O)cc1 | 2.58 | 97.7 µM (≈ 57.1 µg/mL) | –
11 | O=c1[nH]c2cc(Cl)ccc2c(O)c1-c1cccc(Oc2ccccc2)c1 | 2.96 | 2.5 µM (≈ 0.909 µg/mL) | –
12 | NS(=O)(=O)c1cccc(Nc2nccc(Nc3cccc4[nH]ncc34)n2)c1 | 2.6 | 51.3 µM (≈ 19.6 µg/mL) | –
13 | COc1cc(Nc2nccc(N(C)c3cc(CO)ccc3C)n2)cc(N2CCOCC2)c1 | 3.9 | 56.2 µM (≈ 24.5 µg/mL) | –
14 | Oc1ccc(-c2ccc(C3(O)CN4CCC3CC4)cc2)cc1 (stereo unspecified) | – | 436 µM (≈ 129 µg/mL) | 0.95
15 | CS(=O)(=O)c1ccc(Oc2ccc(C#C[C@]3(O)CN4CCC3CC4)cc2)cc1 | – | 457 µM (≈ 182 µg/mL) | 1.51
16 | CN(c1ccnc(Nc2cccc(S(C)(=O)=O)c2)n1)c1cccc2[nH]ncc12 | 3.21 | 13.5 µM (≈ 5.33 µg/mL) | –
17 | Oc1cccc2nc(-c3ccccc3)cc(O)c12 | 3.37 | 5 µM (≈ 1.19 µg/mL) | –
18 | CNc1cccc(CCOc2ccc(C[C@H](NC(=O)c3c(Cl)cccc3Cl)C(=O)O)cc2)n1 | -0.15 | 1510 µM (≈ 739 µg/mL) | –
19 | Cc1cc(Nc2nc(NCc3cc(C)no3)ncc2Br)[nH]n1 | 2.92 | 61.7 µM (≈ 22.5 µg/mL) | –
20 | Cc1ccnc2nc(C(=O)Nc3nccs3)nn12 | – | 339 µM (≈ 88.2 µg/mL) | 0.31
21 | COc1ccc(Cn2cc3c(=O)n(C)c(=O)n(CC(C)C)c3c2)cc1 | 3.52 | 17 µM (≈ 5.8 µg/mL) | –
22 | O=C(c1scc2c1CCCC2)N1CCCCC1 | 3.16 | 871 µM (≈ 217 µg/mL) | –
23 | O=C(NC1CCCC1)C(c1ccncc1)N(Cc1ccco1)C(=O)c1ccc(-c2ccccc2)[nH]1 (stereo unspecified) | 4.36 | 3.5 µM (≈ 1.64 µg/mL) | –
24 | O=C(c1ccc(F)cc1)C1CCN(C(=O)c2ccc(F)cc2)CC1 | 2.9 | 30.9 µM (≈ 10.2 µg/mL) | –
25 | CCOC(=O)c1ccc(OCC2CN(c3ccc(C)nn3)C2)cc1 | 3.1 | 141 µM (≈ 46.3 µg/mL) | –
26 | CN1CCN(S(=O)(=O)c2ccc(-c3cnc(N)c(C(=O)Nc4cccnc4)n3)cc2F)CC1 | 2.66 | 2.7 µM (≈ 1.27 µg/mL) | –

Row | SMILES | logD (physchem [1]; pH 7.4, LogD7.4) | solubility thermodynamic (physchem [2]) | logD (physchem [1]; pH 7.4)
27 | COc1cc2ncnc(Nc3cc(NC(=O)c4cccc(N5CCOCC5)c4)ccc3C)c2cc1OC | 3.6 | 14.5 µM (≈ 7.24 µg/mL) | –
28 | O=C(NCc1ccncc1)c1ccc(Oc2ccc(C#C[C@@]3(O)CN4CCC3CC4)cc2)cc1 | – | 107 µM (≈ 48.6 µg/mL) | 2.31
29 | CCn1c(=O)ccc2cnc(Nc3ccc(OC)c(OC)c3)nc21 | 2.7 | 1.6 µM (≈ 0.522 µg/mL) | –
30 | CC(C)C[C@H](NC(=O)N1CCOCC1)C(=O)N[C@H](/C=C/S(=O)(=O)c1ccccc1)CCc1ccccc1 | 3.4 | 17 µM (≈ 8.97 µg/mL) | –
31 | Cc1nn(C2CCN(C)CC2)cc1-c1cnc(N)c(-c2nc3ccccc3o2)c1 | 3.4 | 21.4 µM (≈ 8.31 µg/mL) | –
32 | CN(C)CC(O)COc1ccc(Nc2nccc(N(CC#N)c3cc(Cl)ccc3Cl)n2)cc1 (stereo unspecified) | 2.4 | 575 µM (≈ 280 µg/mL) | –
33 | Clc1cccc(Cl)c1-c1nnc2cccc(Cl)n12 | 2.66 | 115 µM (≈ 34.3 µg/mL) | –
34 | COc1cc(N2CCN(C(C)=O)CC2)ccc1Nc1ncc(Cl)c(-c2cnc3cc(N4CCCC4)ccn23)n1 | 3.5 | 1.4 µM (≈ 0.766 µg/mL) | –
35 | CCN(c1ccnc(Nc2cc(N3CCOCC3)cc(N3CCOCC3)c2)n1)c1cc(CO)ccc1C | 3.8 | 72.4 µM (≈ 36.5 µg/mL) | –
36 | COc1ccc(S(=O)(=O)Nc2ccc(/C=C/C(=O)Nc3ccccc3N)cc2)cc1OC | 2.56 | 7.8 µM (≈ 3.54 µg/mL) | –
37 | CNC(=O)Nc1nc2ccc(-c3cncc(S(=O)(=O)NC(C)(C)C)c3)cn2n1 | 1.58 | 87.1 µM (≈ 35.1 µg/mL) | –
38 | COc1cc(N2CCN(C(C)=O)CC2)ccc1Nc1ncc(Cl)c(-c2cnc3c(CO)cccn23)n1 | 3.1 | 0.5 µM (≈ 0.254 µg/mL) | –
39 | Cc1cc(CCC2CCN(S(=O)(=O)CC3(N(O)C=O)CCOCC3)CC2)c(C)cn1 | 1.43 | 1100 µM (≈ 482 µg/mL) | –
40 | COc1cc2ncnc(Nc3ccc(Cl)c(O)c3)c2cc1OC | 3.3 | 1.4 µM (≈ 0.464 µg/mL) | –
41 | CCCN(CCO)CCCOc1ccc2c(Nc3cc(CC(=O)Nc4cccc(F)c4F)[nH]n3)ncnc2c1 | 2.19 | 5.8 µM (≈ 3.13 µg/mL) | –
42 | Cn1c(C#N)ccc1-c1ccc2c(c1)C(C)(C)OC(=S)N2 [TANAPROGET] | 3.4 | 3.6 µM (≈ 1.07 µg/mL) | –
43 | CNc1cccc(CCOc2ccc(C[C@H](NC(=O)c3c(F)cccc3Cl)C(=O)O)cc2)n1 | -0.42 | 1230 µM (≈ 581 µg/mL) | –
44 | Cc1c(Oc2ccc(S(C)(=O)=O)cc2F)ncnc1OC1CCN(C(=O)OC(C)C)CC1 | 3.7 | 3 µM (≈ 1.4 µg/mL) | –
45 | Nc1nc(-c2ccccc2)cs1 | 2.43 | 832 µM (≈ 147 µg/mL) | –
46 | COc1cc(N2CCN(C(C)=O)CC2)ccc1Nc1ncc(OC)c(-c2cnc3ccccn23)n1 | 3.2 | 1.3 µM (≈ 0.616 µg/mL) | –
47 | Cc1ccc(NC(=O)C2CC2)cc1-n1cnc2ccc(N3CCN(C)CC3)cc2c1=O | 2.17 | 1510 µM (≈ 632 µg/mL) | –
48 | COc1cc2c(c(OC)c1OC)-c1ccc(O)cc1[C@@H](NC(C)=O)CC2 [N-ACETYLCOLCHINOL] | – | 813 µM (≈ 290 µg/mL) | 1.81
49 | COc1ccc(-c2csc(NC(=O)c3c(C)noc3C)n2)cc1OC | – | 2 µM (≈ 0.719 µg/mL) | 3.16
50 | CC(=O)c1noc(C)c1C(=O)Nc1nccs1 | 1.94 | 46.8 µM (≈ 11.8 µg/mL) | –
51 | CC(=O)Nc1nc(-c2ccccc2)ns1 | – | 182 µM (≈ 39.9 µg/mL) | 2.8
52 | Cc1cc(=O)oc2cc3c(cc12)CCCN3 | – | 13.8 µM (≈ 2.97 µg/mL) | 2.7

Row | SMILES | logD (physchem [1]; pH 7.4, LogD7.4) | solubility thermodynamic (physchem [2]) | logD (physchem [1]; pH 7.4)
53 | O=C(NCCNC(=O)c1cn(-c2ccccc2)nc1C(F)(F)F)c1ccc(Cl)cn1 | 3.8 | 3.4 µM (≈ 1.49 µg/mL) | –
54 | FC(F)c1nc2ccccc2n1-c1nc(N2CCOCC2)nc(N2CCOCC2)n1 [ZSTK-474] | 3.04 | 0.7 µM (≈ 0.292 µg/mL) | –
55 | Nc1ccccc1NC(=O)c1ccc(CNc2nccc(-c3cccnc3)n2)cc1 [MOCETINOSTAT] | 2.28 | 13.5 µM (≈ 5.35 µg/mL) | –
56 | O=C(N[C@@H](Cc1ccccc1)[C@@H](O)C(=O)N1C[C@@H](O)[C@@H](O)C1)c1cc2cc(Cl)ccc2[nH]1 [INGLIFORIB] | 2.8 | 436 µM (≈ 200 µg/mL) | –
57 | COCCOCCOc1ccc(-c2cc(C(N)=O)c(NC(N)=O)s2)cc1 | 2.21 | 20.9 µM (≈ 7.93 µg/mL) | –
58 | COc1cc2c(Nc3ccc(Cl)cc3F)ncnc2cc1OCCCN1CCOCC1 | 3.4 | 21.9 µM (≈ 9.79 µg/mL) | –
59 | CN(C)C(=O)[C@H](Cc1ccccc1)NC(=O)c1cc2sccc2[nH]1 | 3.1 | 17 µM (≈ 5.8 µg/mL) | –
60 | COc1cc(N2CCN(C(C)=O)CC2)ccc1Nc1ncc(C)c(-c2cnc3ccccn23)n1 | 2.9 | 5 µM (≈ 2.29 µg/mL) | –
61 | NC(=O)c1sc(-c2ccsc2)cc1NS(=O)(=O)c1ccc(C(F)(F)F)cc1 | 2.39 | 4.8 µM (≈ 2.08 µg/mL) | –
62 | O=C(NCc1ccncc1)c1ccc(Oc2ccc(C#CC3(O)CN4CCC3CC4)cc2)cc1 (stereo unspecified) | – | 269 µM (≈ 122 µg/mL) | 2.48
63 | CCOC(=O)c1ccc(OCCC2CN(c3ccc(C)nn3)C2)cc1 | 3.22 | 347 µM (≈ 118 µg/mL) | –
64 | Oc1cc(OCc2ccccc2)ccn1 | 1.69 | 1230 µM (≈ 248 µg/mL) | –
65 | CCOC(=O)Cc1csc(NS(=O)(=O)c2ccc(Cl)cc2)n1 | 1.32 | 417 µM (≈ 150 µg/mL) | –
66 | Cc1nc(C)c(C(=O)N[C@@H](Cc2cccc(Cl)c2)C(=O)NCC#N)s1 | 2 | 57.5 µM (≈ 21.7 µg/mL) | –
67 | COc1ccc(C(=O)CS(=O)(=O)c2ccccc2)cc1 | 1.96 | 53.7 µM (≈ 15.6 µg/mL) | –
68 | O=C(Nc1ccc(N2CCOCC2)nc1)c1nnc(Nc2ccc(F)cc2)o1 | 3 | 2.6 µM (≈ 0.999 µg/mL) | –
69 | CC(C)Oc1cc(OCCc2ccsc2)cc(C(=O)Nc2ccc(C(=O)O)cn2)c1 | 1.74 | 33.9 µM (≈ 14.5 µg/mL) | –
70 | COc1cc(Nc2ncnc3cccc(O[C@H](C)C(=O)N4CCOCC4)c23)ccc1Oc1ccc(C)nc1 | 3.6 | 37.2 µM (≈ 19.2 µg/mL) | –
71 | C[C@@H](Oc1cccc2ncnc(Nc3ccc4c(cnn4Cc4ccccn4)c3)c12)C(=O)N1CCOCC1 | 2.82 | 95.5 µM (≈ 48.7 µg/mL) | –
72 | O=C(CCc1ccncc1)Nc1ccc(C(=O)c2ccccc2)cc1 | 3.4 | 8.1 µM (≈ 2.68 µg/mL) | –
73 | Cc1cc(NC(=O)c2ccccc2)n[nH]1 | 1.75 | 813 µM (≈ 164 µg/mL) | –
74 | CN(CCOc1ccc(C[C@H](Nc2ccccc2C(=O)c2ccccc2)C(=O)O)cc1)c1ccccn1 | 2.15 | 219 µM (≈ 108 µg/mL) | –
75 | COc1cc(C(=O)NS(=O)(=O)c2ccccc2)ccc1Cn1ncc2ccc(NC(=O)CC3CCCC3)cc21 | 1.6 | 251 µM (≈ 137 µg/mL) | –
76 | Cc1ncc(-c2nc(Nc3ccc(C(=O)NC4CCN(C)CC4)c(F)c3)ncc2F)n1C(C)C | 2.41 | 275 µM (≈ 129 µg/mL) | –
77 | CS(=O)(=O)c1cccc(Nc2nccc(Nc3cccc4ncoc34)n2)c1 | 2.5 | 5.6 µM (≈ 2.14 µg/mL) | –
78 | O=C(NCC(=O)N(CCO)c1ccccc1)c1cc2cc(Cl)ccc2[nH]1 | 3.37 | 1.8 µM (≈ 0.669 µg/mL) | –
